Results reported in ChEMBL document CHEMBL1147038, “Structural basis for the specific inhibition of protein kinase G, a virulence factor of Mycobacterium tuberculosis” (Proc Natl Acad Sci U S A, 2007).
The source made the active and inactive calls. No cut-off for these calls is given here.

Tests used:
[1] = system: Mycobacterium tuberculosis; assay: Inhibition of Mycobacterium tuberculosis PKnG-I87S/A92S mutant at 25 uM by autoradiography
[2] = system: Mycobacterium tuberculosis; assay: Inhibition of Mycobacterium tuberculosis PKnGdeltaN mutant at 63 uM by autoradiography

NC(=O)c1c(NC(=O)C2CC2)sc2c1CCCC2
inhibition [1]: > 50% | Activity [2]: Active
